Experimental data as given in US11427553B2, “Dihydrooxadiazinones” (Bayer Aktiengesellschaft, priority 2017, dated 2022).

Assays:
HeLa cells = assay: Assay 1 cell proliferation measurement (CTG, 72 h), HeLa; type: cell-based, human; details: Homo sapiens, HeLa; Assay 1, 72 h, Cell Titer Glo; read-out: HeLa IC50 [nM] (Cervical cancer)
In short: (§1)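 Growth inhibition relative to a 0 h baseline plate and 0.3% DMSO control, with IC50 fitted by 4-parameter curve. Compound exposure lasted 72 h at 37 °C across a 2.5-fold, 10-step series starting generally at 100 nM final.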

SK-MEL-3 cells = assay: Assay 1 cell proliferation measurement (CTG, 72 h), SK-MEL-3; type: cell-based, human; details: Homo sapiens, SK-MEL3; Assay 1, 72 h, Cell Titer Glo; read-out: SK-MEL-3 IC50 [nM] (melanoma)
In short: as §1

H4 cells = assay: Assay 1 cell proliferation measurement, H4; type: cell-based; details: Homo sapiens; Astrocytoma; read-out: Anti-proliferation IC50 [nM] H4
NCI-H1734 cells = assay: Assay 1 cell proliferation measurement, NCI-H1734; type: cell-based; details: Homo sapiens, Lung, read-out: Anti-proliferation IC50 [nM] NCI-H1734
human full length PDE3A = human full length PDE3A (Homo sapiens (Human), UniProt Q14432); assay: Assay 4 PDE3A enzyme inhibition (3H-cAMP SPA); type: biochemical; details: Sf9 cell extract
In short: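 Enzyme: Sf9 extract with overexpressed full-length PDE3A; substrate [8-3H]cAMP, 0.025 μCi/well; 60 min, room temperature, Tris/HCl pH 7.5 buffer with MgCl2, EDTA, BSA.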

human full length PDE3B = human full length PDE3B (Homo sapiens (Human), UniProt Q13370); assay: Assay 5 PDE3B enzyme inhibition (3H-cAMP SPA); type: biochemical; details: Sf9 cell extract
In short: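 Inhibition was measured by scintillation proximity using [8-3H]adenosine 3′,5′-cyclic phosphate as substrate and full-length human PDE3B from an Sf9 overexpression extract, run one hour at room temperature at pH 7.5.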

[1] = Assay 6 in vitro metabolic stability in cryopreserved human hepatocytes (CL, Fmax); type: in vitro ADME; details: 1 μM test compound; for Clblood: hepatic in vivo blood clearance calculated (well-stirred) from half-life in cryopreserved human hepatocytes; for Fmax: maximal oral bioavailability calculated from half-life in cryopreserved human hepatocytes
Method: Assay 6 Method for Human Cryo Hepatocytes:
Investigation of In Vitro Metabolic Stability in Cryopreserved Human Hepatocytes (Including Calculation of Hepatic In Vivo Blood Clearance (CL) and Maximal Oral Bioavailability (Fmax))
Cryopreserved Hepatocytes (e.g. purchased from Celsis InVitroTechnologies) were briefly thawed, washed with 45 mL pre-warmed in in vitro GRO HT medium and centrifuged for 5 min at 50×g. The cell pellet was resuspended in 5 ml of Krebs-Henseleit […] (KHB). Cell viability was determined by trypan blue exclusion.
For the metabolic stability assay liver cells were distributed in WME containing 5% FCS to glass vials at a density of 1.0×10^6 vital cells/ml. The test compound was added to a final concentration of 1 μM. During incubation, the hepatocyte suspensions were continuously shaken at 580 rpm and aliquots were taken at 2, 8, 16, 30, 45 and 90 min, to which equal volumes of cold methanol were immediately added. Samples were frozen at −20° C. over night, after subsequently centrifuged for 15 minutes at 3000 rpm and the supernatant was analyzed with an Agilent 1290 HPLC-system with LCMS/MS detection.
The half-life of a test compound was determined from the concentration-time plot. From the half-life the intrinsic clearances were calculated. Together with the additional parameters liver blood flow, amount of liver cells in vivo and in vitro. The hepatic in vivo blood clearance (CL) and the maximal oral bioavailability (Fmax) was calculated.

IGR37 cells = assay: Assay 1 cell proliferation measurement (CTG, 72 h), IGR37; type: cell-based; details: Homo sapiens, IGR-37, Cell Titer Glo, read-out: IGR37 IC50 [nM] (melanoma)
Hs 578T cells = assay: Assay 1 cell proliferation measurement, Hs 578T; type: cell-based; details: Homo sapiens, Breast, read-out: Anti-proliferation IC50 [nM] Hs 578T
HEL 92.1.7 cells = assay: Assay 1 cell proliferation measurement, HEL 92.1.7; type: cell-based; details: Homo sapiens, Erythroleukemia, read-out: Anti-proliferation IC50 [nM] HEL 92.1.7
DK-MG cells = assay: Assay 1 cell proliferation measurement, DK-MG; type: cell-based; details: Homo sapiens; Glioblastoma; read-out: Anti-proliferation IC50 [nM] DK-MG
DBTRG-05-MG cells = assay: Assay 1 cell proliferation measurement, DBTRG-05-MG; type: cell-based; details: Homo sapiens, Glioblastoma, read-out: Anti-proliferation IC50 [nM] DBTRG-05-MG
CHL-1 cells = assay: Assay 1 cell proliferation measurement, CHL-1; type: cell-based; details: Homo sapiens, Melanoma, read-out: Anti-proliferation IC50 [nM] CHL-1
A-2058 cells = assay: Assay 1 cell proliferation measurement, A-2058; type: cell-based; details: Homo sapiens, A2058; Melanoma; read-out: Anti-proliferation IC50 [nM] A-2058
PA-1 cells = assay: Assay 1 cell proliferation measurement, PA-1; type: cell-based; details: Homo sapiens, Ovarian teratocarcinoma, read-out: Anti-proliferation IC50 [nM] PA-1

human full length PDE3B, sequence (Q13370 whole entry): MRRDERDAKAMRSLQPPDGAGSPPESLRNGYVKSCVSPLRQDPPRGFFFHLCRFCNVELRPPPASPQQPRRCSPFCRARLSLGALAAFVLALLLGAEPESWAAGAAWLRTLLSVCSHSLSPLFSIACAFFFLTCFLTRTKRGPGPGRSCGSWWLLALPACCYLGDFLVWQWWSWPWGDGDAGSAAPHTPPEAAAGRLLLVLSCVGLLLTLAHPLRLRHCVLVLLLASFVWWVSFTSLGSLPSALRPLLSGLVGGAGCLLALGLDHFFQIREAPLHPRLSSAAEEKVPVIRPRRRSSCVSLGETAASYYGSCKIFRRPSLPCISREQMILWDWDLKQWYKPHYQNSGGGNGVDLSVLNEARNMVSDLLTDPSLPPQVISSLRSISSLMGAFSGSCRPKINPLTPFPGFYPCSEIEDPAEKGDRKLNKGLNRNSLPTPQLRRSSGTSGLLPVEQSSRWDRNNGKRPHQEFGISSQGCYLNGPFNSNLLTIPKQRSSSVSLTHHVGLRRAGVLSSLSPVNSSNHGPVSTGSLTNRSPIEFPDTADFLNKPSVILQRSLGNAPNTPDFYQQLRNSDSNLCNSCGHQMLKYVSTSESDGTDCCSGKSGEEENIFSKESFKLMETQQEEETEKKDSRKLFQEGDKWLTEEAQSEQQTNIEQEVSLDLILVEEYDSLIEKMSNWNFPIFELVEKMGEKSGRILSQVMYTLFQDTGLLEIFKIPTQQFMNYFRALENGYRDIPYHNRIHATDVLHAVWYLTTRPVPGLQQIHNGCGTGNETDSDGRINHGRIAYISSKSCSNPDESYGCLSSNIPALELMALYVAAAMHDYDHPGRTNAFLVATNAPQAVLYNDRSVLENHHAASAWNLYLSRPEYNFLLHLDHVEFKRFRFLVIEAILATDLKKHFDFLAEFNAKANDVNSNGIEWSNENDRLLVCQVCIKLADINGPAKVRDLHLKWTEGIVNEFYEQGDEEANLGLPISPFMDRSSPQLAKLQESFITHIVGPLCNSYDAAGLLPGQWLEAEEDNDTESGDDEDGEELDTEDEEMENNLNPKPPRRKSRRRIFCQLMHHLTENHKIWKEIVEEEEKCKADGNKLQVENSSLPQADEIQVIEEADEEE
human full length PDE3A, sequence (Q14432 whole entry): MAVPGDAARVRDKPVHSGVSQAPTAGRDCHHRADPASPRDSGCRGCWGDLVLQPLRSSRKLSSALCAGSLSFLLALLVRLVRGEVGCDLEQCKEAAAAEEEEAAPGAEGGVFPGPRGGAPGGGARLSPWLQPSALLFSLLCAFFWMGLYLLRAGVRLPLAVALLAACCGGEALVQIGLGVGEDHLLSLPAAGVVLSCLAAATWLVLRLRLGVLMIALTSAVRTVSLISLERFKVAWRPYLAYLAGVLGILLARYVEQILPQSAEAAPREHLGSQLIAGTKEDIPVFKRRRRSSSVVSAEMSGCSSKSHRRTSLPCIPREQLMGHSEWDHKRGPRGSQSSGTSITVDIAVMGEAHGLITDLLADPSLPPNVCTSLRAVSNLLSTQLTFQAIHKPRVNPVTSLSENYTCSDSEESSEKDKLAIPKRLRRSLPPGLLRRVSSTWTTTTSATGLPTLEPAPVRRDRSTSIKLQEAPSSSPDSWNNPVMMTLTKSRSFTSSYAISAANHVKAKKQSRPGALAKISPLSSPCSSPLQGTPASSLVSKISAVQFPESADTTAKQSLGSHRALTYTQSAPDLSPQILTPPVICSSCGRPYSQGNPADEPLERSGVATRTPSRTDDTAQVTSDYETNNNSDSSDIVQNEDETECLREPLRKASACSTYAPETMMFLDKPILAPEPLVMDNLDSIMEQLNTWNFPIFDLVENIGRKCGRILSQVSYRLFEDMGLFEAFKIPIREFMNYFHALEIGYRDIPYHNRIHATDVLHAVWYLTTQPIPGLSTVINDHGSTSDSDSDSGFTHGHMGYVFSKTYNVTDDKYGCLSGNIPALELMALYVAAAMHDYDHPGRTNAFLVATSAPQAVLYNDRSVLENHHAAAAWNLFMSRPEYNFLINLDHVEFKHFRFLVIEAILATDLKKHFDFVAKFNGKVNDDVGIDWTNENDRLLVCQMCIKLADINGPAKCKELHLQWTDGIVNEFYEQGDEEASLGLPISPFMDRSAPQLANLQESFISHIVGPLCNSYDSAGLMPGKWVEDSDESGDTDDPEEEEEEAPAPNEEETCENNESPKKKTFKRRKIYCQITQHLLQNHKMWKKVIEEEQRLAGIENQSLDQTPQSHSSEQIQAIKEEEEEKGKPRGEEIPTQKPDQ

| Structure (SMILES) | IC50 (HeLa cells) | IC50 (SK-MEL-3 cells) | IC50 (NCI-H1734 cells) | IC50 (human full length PDE3A) | IC50 (human full length PDE3B) | Clblood [1] | Fmax [1] | IC50 (H4 cells) | IC50 (IGR37 cells) | IC50 (Hs 578T cells) | IC50 (HEL 92.1.7 cells) | IC50 (DK-MG cells) | IC50 (DBTRG-05-MG cells) | IC50 (CHL-1 cells) | IC50 (A-2058 cells) | IC50 (PA-1 cells) |
| --- | --- | --- | --- | --- | --- | --- | --- | --- | --- | --- | --- | --- | --- | --- | --- | --- |
| C[C@@H]1OC(=O)NN=C1c1cc(Cl)c(N2CCOCC2)c(C(F)(F)F)c1 [Example 121, (6S)-5-(-[(3-Chloro-4-(morpholin-4-yl)-5-(trifluoromethyl)phenyl)-)]-6-methyl-3,6-dihydro-2H-1,3,4-oxadiazin-2-one] | 5 nM | 10 nM |  | 0.15 µM | 0.299 µM | 0.13 L/h/kg | 90% |  | 12 nM |  |  |  |  |  |  |  |
| C[C@@H]1OC(=O)NN=C1c1ccc(-c2ccnc(N)c2)c(C(F)(F)F)c1 [Example 165, (6S)-5-[4-(2-Aminopyridin-4-yl)-3-(trifluoromethyl)phenyl]-6-methyl-3,6-dihydro-2H-1,3,4-oxadiazin-2-one] | 1 nM | 1 nM |  | 0.077 µM | 0.066 µM | 0.88 L/h/kg | 33% |  | 1 nM |  |  |  |  |  |  |  |
| C[C@@H]1OC(=O)NN=C1c1ccc(-c2cnn(C(F)F)c2)c(C(F)(F)F)c1 [Example 190, (6S)-5-{4-[1-(Difluoromethyl)-1H-pyrazol-4-yl]-3-(trifluoromethyl)phenyl}-6-methyl-3,6-dihydro-2H-1,3,4-oxadiazin-2-one] | 0.2 nM | 0.4 nM |  | 0.038 µM | 0.025 µM | 0.90 L/h/kg | 32% |  | 0.4 nM |  |  |  |  |  |  |  |
| COCCCc1ccc(C2=NNC(=O)OC2)cc1C(F)(F)F [Example 267, 5-[4-(3-Methoxypropyl)-3-(trifluoromethyl)phenyl]-3,6-dihydro-2H-1,3,4-oxadiazin-2-one] | 2 nM | 5 nM |  | 0.145 µM | 0.185 µM | 0.27 L/h/kg | 80% |  | 7 nM | 34 nM | 26 nM | 18 nM | 35 nM | 16 nM | 40 nM | 44 nM |
| CC(C)(C)CCc1ccc(C2=NNC(=O)OC2)cc1C(F)(F)F [Example 269, 5-[4-(3,3-Dimethylbutyl)-3-(trifluoromethyl)phenyl]-3,6-dihydro-2H-1,3,4-oxadiazin-2-one] | 6 nM | 17 nM |  | 0.695 µM | 0.79 µM | 0.41 L/h/kg | 69% |  | 24 nM | 66 nM | 44 nM | 49 nM | 50 nM | 47 nM | 61 nM | 49 nM |
| C[C@@H]1OC(=O)NN=C1c1ccc(N2CCN(C)CC2)c(C(F)(F)F)c1 [Example 277, (6S)-6-Methyl-5-[4-(4-methylpiperazin-1-yl)-3-(trifluoromethyl)phenyl]-3,6-dihydro-2H-1,3,4-oxadiazin-2-one] | 0.3 nM | 1 nM |  | 0.1 µM | 0.087 µM |  |  |  | 1 nM | > 100 nM | > 100 nM | > 100 nM | > 100 nM | > 100 nM | > 100 nM | > 100 nM |

More lines, main results first:

| IC50 (HeLa cells) | IC50 (SK-MEL-3 cells) | IC50 (NCI-H1734 cells) | IC50 (human full length PDE3A) | IC50 (human full length PDE3B) | Clblood [1] | Fmax [1] | Structure (SMILES) | IC50 (H4 cells) | IC50 (IGR37 cells) | IC50 (Hs 578T cells) | IC50 (HEL 92.1.7 cells) | IC50 (DK-MG cells) | IC50 (DBTRG-05-MG cells) | IC50 (CHL-1 cells) | IC50 (A-2058 cells) | IC50 (PA-1 cells) |
| --- | --- | --- | --- | --- | --- | --- | --- | --- | --- | --- | --- | --- | --- | --- | --- | --- |
| 7 nM | 16 nM | 40 nM | 0.203 µM | 0.154 µM | <0.01 L/h/kg | 100% | O=C1NN=C(c2ccc(N3CCOCC3)c(F)c2)CO1 [Example 4, 5-[3-Fluoro-4-(morpholin-4-yl)phenyl]-3,6-dihydro-2H-1,3,4-oxadiazin-2-one] | 47 nM |  |  |  |  |  |  |  |  |
| 5 nM | 13 nM | 26 nM | 0.22 µM | 0.17 µM | 0.33 L/h/kg | 75% | Cc1cc(C2=NNC(=O)OC2)ccc1-c1ccc(F)cc1 [Example 7, 5-(4′-Fluoro-2-methylbiphenyl-4-yl)-3,6-dihydro-2H-1,3,4-oxadiazin-2-one] | 44 nM |  |  |  |  |  |  |  |  |
| 6 nM | 18 nM | 42 nM | 0.21 µM | 0.243 µM |  |  | Cc1cc(C2=NNC(=O)OC2)ccc1-c1ccc(F)c(F)c1 [Example 8, 5-(3′,4′-Difluoro-2-methylbiphenyl-4-yl)-3,6-dihydro-2H-1,3,4-oxadiazin-2-one] | 50 nM | 16 nM |  |  |  |  |  |  |  |
| 6 nM | 13 nM |  | 0.225 µM | 0.25 µM | 0.27 L/h/kg | 80% | O=C1NN=C(c2ccc(-c3ccc(F)cc3)c(OC(F)(F)F)c2)CO1 [Example 76, 5-[4′-Fluoro-2-(trifluoromethoxy)biphenyl-4-yl]-3,6-dihydro-2H-1,3,4-oxadiazin-2-one] |  | 13 nM |  |  |  |  |  |  |  |
| 2 nM | 4 nM |  | 0.068 µM | 0.13 µM |  |  | O=C1NN=C(c2ccc(-c3ccc(C(F)F)cc3)c(F)c2)CO1 [Example 92, 5-[4′-(Difluoromethyl)-2-fluoro[1,1′-biphenyl]-4-yl]-3,6-dihydro-2H-1,3,4-oxadiazin-2-one] |  | 4 nM | 31 nM | 9 nM | 17 nM | 18 nM | 11 nM | 18 nM | 17 nM |
| 14 nM | 29 nM |  | 0.14 µM | 0.31 µM |  |  | Cc1ccc(C2=NNC(=O)OC2)cc1C(F)(F)F [Example 139, 5-[4-Methyl-3-(trifluoromethyl)phenyl]-3,6-dihydro-2H-1,3,4-oxadiazin-2-one] |  | 40 nM | > 100 nM | > 100 nM | 61 nM | > 100 nM | 58 nM | > 100 nM | > 100 nM |
| 6 nM | 10 nM |  | 0.066 µM | 0.049 µM | 0.55 L/h/kg | 59% | O=C1NN=C(c2ccc(-c3ccccc3C(F)F)c(F)c2)CO1 [Example 161, 5-[2′-(Difluoromethyl)-2-fluoro[1,1′-biphenyl]-4-yl]-3,6-dihydro-2H-1,3,4-oxadiazin-2-one] |  | 12 nM |  |  |  |  |  |  |  |
| 27 nM | 49 nM |  | 0.079 µM | 0.24 µM |  |  | CNc1ccc(C2=NNC(=O)OC2)cc1C(F)(F)F [Example 276, 5-[4-(Methylamino)-3-(trifluoromethyl)phenyl]-3,6-dihydro-2H-1,3,4-oxadiazin-2-one] |  | 50 nM |  |  |  |  |  |  |  |
